The test system of assay [1] is CHO-K1. The experiment in a line: Counterscreen for antagonists of the orexin 1 receptor (OX1R; HCRTR1): Homogeneous time resolved fluorescence (HTRF)-based cell-based dose response assay to identify antagonists of the parental CHO-K1 cell line. [Related pubchem assays (depositor defined):AID434989, AID435008, AID463079, AID485270, AID492963, AID492964, AID492965, AID493232, AID504699, AID504701]. Particulars: Cricetulus griseus. It counts as functional. Background: A counterscreen serves to expose hits that act by an unwanted route or on another target.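 Also: potency for inhibition of ATP-stimulated IP1 production as antagonists.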

Assay [2] can be described thus: Counterscreen for antagonists of the orexin 1 receptor (OX1R; HCRTR1): Fluorescence-based cell-based high throughput dose response assay to identify antagonists of the parental CHO cell line. [Related pubchem assays (depositor defined):AID434989, AID435008, AID463079, AID485270, AID492963, AID492964, AID492965, AID493232, AID504699, AID504701]. Type of assay: functional.

Assay [3] has as its target T1, Orexin/Hypocretin receptor type 1 (Homo sapiens, UniProt O43613).
T1 sequence (O43613 whole entry): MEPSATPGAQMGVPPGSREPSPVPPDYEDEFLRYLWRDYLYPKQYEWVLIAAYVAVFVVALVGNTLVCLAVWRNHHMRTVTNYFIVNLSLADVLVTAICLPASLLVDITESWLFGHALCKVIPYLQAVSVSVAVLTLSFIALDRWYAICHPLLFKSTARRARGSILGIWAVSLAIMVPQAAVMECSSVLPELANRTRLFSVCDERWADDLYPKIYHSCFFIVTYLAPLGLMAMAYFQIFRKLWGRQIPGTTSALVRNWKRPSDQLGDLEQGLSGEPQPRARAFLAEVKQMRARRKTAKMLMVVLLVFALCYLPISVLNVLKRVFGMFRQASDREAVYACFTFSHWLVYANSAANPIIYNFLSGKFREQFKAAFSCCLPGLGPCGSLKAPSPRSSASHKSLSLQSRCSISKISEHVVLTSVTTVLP
Briefly: Homogeneous Time Resolved Fluorescence (HTRF)-based cell-based high throughput dose response assay for antagonists of the orexin 1 receptor (OX1R; HCRTR1). [Related pubchem assays (depositor defined):AID434989, AID435008, AID463079, AID485270, AID492963, AID492964, AID492965, AID493232, AID504717, AID504718]. Type of assay: functional.

For assay [4], the target named is T1, Orexin/Hypocretin receptor type 1. The experiment in a line: Fluorescence-based cell-based high throughput dose response assay for antagonists of the orexin 1 receptor (OX1R; HCRTR1). [Related pubchem assays (depositor defined):AID434989, AID435008, AID463079, AID485270, AID492963, AID492964, AID492965, AID493232, AID504717, AID504718]. Type of assay: functional.

Assay [5] addresses T2, Orexin receptor type 2 (Homo sapiens, UniProt O43614).
T2 sequence (O43614 whole entry): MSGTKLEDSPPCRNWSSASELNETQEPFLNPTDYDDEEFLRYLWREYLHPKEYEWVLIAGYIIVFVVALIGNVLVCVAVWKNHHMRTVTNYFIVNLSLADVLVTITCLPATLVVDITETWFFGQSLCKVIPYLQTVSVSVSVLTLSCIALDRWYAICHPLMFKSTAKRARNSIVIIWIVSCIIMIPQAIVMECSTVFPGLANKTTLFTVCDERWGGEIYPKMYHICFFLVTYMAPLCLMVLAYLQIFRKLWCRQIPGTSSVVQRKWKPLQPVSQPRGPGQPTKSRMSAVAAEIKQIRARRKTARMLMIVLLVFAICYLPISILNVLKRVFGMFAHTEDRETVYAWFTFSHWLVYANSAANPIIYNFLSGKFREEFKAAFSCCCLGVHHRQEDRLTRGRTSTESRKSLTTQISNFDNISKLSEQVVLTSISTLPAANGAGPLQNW
Briefly: Counterscreen assay for antagonists of the orexin 1 receptor (OX1R; HCRTR1): Fluorescence-based cell-based dose response assay for antagonists of the orexin 2 receptor (OX2R; HCRTR2), run by assay provider. Type of assay: functional.

Assay [6] deals with T2, Orexin receptor type 2. Briefly: Counterscreen assay for antagonists of the orexin 1 receptor (OX1R; HCRTR1): Homogeneous Time Resolved Fluorescence (HTRF)-based cell-based dose response assay for antagonists of the orexin 2 receptor (OX2R; HCRTR2), run by assay provider. It counts as functional.
Assay [7] deals with HEK293. Briefly: EBV LMP1 TES2 canonical NF-kB signalling blockers – cell-based, HEK293, luciferase, cherry-pick, dose response (AID 588343). Type of assay: functional. Particulars: Homo sapiens.
A short description of assay [8]: reduction of Shn3 3'UTR-driven luciferase in osteoblasts – cell-based, Clone20 osteoblasts, firefly luciferase, cherry-picked, dose response (AID 624132).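 Also: firefly luciferase luminescence from reporter carrying the Shn3 3'UTR in osteoblasts.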 Type of assay: functional.
The nature of assay [9]: loss of viability in HepG2 cells – cell-based, CellTiter-Glo, cherry-picked, cytotoxicity control for Shn3 inhibitor project, dose response (AID 624134). Type of assay: functional. (ATP-based viability assays read luminescence as a measure of living cells.)
Assay [10] is described as follows: non-specific 3'UTR reporter inhibition in Clone20-Shn3RL – cell-based, Renilla luciferase, cherry-picked, counter-screen for Shn3 inhibitor project, dose response (AID 624133). Type of assay: functional.
In assay [11] the target is T3, Cytochrome P450 1A2 (Homo sapiens, UniProt P05177).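 Also: PubChem cytochrome P450 panel assay, CYP1A2 panel member.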
T3 sequence (P05177 whole entry): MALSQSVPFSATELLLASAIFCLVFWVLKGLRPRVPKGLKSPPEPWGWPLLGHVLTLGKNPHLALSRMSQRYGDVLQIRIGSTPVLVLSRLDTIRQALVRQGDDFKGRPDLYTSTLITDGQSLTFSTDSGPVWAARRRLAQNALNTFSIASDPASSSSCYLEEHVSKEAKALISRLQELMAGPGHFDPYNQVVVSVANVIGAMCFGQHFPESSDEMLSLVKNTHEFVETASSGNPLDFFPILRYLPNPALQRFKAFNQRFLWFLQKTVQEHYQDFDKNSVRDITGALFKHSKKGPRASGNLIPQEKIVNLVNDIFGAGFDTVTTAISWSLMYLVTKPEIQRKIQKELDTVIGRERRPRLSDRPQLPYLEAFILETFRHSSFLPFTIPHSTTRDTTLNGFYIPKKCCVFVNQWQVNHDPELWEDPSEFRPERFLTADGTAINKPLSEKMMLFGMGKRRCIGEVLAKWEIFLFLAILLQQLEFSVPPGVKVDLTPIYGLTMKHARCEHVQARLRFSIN

In assay [12] the target is T4, Caspase-3 (Homo sapiens, UniProt P42574).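 Also: Dose-response selectivity test against caspase-3 for candidate inhibitors of sentrin-specific proteases (SENPs).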
T4 sequence (P42574 whole entry): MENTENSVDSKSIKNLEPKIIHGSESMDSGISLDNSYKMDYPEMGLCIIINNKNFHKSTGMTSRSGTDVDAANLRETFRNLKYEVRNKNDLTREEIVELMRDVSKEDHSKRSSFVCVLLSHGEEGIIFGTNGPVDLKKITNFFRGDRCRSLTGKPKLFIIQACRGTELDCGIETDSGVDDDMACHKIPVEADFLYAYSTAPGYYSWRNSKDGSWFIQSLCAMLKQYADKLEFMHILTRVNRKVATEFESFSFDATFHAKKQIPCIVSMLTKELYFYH
Type of assay: functional.

Assay [13] deals with T5, Sentrin-specific protease 7 (Homo sapiens, UniProt Q9BQF6).
T5 sequence (Q9BQF6 whole entry): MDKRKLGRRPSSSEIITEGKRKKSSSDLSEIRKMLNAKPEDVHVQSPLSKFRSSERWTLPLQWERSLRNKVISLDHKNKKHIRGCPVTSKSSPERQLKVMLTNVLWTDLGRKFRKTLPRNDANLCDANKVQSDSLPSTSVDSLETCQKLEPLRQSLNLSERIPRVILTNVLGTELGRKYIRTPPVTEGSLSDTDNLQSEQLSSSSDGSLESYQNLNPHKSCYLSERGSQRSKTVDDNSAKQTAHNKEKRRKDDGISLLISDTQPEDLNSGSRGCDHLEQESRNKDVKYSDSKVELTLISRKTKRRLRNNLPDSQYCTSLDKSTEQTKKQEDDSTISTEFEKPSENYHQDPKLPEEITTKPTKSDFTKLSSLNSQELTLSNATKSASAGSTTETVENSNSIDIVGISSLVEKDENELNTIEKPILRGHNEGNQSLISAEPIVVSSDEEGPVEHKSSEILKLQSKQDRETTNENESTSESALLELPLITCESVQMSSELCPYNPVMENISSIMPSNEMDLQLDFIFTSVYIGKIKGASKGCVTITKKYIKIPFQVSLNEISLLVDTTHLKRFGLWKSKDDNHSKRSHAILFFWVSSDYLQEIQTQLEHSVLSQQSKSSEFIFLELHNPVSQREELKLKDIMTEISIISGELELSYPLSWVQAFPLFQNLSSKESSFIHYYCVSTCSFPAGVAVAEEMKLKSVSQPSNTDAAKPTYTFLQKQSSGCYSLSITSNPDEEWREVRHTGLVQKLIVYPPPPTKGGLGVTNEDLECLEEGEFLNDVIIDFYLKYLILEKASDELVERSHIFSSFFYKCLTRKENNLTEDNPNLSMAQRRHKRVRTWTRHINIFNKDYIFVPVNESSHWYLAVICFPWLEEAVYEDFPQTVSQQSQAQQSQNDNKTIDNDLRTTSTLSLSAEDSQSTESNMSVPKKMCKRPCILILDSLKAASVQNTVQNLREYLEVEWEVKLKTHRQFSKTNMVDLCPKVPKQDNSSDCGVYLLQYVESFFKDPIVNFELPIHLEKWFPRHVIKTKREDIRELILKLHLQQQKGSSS
Type of assay: functional.

For assay [14], the target named is T6, Sentrin-specific protease 6 (Homo sapiens, UniProt Q9GZR1).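 Also: Luminescence-based dose-response confirmatory assay of SENP6 inhibition, following up an ultra-high-throughput screen.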
T6 sequence (Q9GZR1 whole entry): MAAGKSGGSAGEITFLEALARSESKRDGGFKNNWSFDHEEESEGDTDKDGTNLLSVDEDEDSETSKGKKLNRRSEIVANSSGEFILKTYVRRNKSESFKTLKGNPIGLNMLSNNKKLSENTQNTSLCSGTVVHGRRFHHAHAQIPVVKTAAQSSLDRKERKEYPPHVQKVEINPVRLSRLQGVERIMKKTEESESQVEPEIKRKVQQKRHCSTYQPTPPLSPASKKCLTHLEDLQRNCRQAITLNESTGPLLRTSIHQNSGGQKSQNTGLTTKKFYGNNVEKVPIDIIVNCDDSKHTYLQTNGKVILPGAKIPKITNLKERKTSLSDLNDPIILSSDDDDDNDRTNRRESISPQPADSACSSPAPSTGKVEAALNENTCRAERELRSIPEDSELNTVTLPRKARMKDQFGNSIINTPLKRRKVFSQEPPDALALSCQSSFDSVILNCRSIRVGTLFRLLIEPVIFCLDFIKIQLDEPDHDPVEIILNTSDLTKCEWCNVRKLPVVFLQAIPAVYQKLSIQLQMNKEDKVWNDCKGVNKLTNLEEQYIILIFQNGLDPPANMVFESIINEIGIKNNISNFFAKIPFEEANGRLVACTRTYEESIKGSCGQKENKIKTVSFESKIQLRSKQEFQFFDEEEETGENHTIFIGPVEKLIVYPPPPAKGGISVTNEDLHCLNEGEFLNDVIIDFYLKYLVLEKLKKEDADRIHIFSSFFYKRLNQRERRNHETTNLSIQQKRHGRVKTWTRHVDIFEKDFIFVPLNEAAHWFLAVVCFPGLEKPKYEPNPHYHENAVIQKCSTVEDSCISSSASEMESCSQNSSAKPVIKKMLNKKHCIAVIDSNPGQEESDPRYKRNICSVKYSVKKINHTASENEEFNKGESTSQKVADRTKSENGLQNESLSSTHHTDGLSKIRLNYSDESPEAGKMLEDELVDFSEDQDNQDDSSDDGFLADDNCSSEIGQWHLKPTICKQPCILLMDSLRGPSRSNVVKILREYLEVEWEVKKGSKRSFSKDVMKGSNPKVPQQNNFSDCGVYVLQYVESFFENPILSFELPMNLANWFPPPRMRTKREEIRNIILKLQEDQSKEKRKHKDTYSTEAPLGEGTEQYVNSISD
Type of assay: functional.

Assay [15] addresses T7, Sentrin-specific protease 8 (Homo sapiens, UniProt Q96LD8).
T7 sequence (Q96LD8 whole entry): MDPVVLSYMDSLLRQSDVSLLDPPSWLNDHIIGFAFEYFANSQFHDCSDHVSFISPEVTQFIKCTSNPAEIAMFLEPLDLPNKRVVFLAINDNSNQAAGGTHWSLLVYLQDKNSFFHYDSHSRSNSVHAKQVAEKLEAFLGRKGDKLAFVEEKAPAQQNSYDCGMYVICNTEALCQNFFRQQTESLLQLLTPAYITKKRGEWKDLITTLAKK
Type of assay: functional.

For seven molecules, IC50 and AC50 results are on record in ChEMBL document CHEMBL1201862, “PubChem BioAssay data set” (2004).

Active and inactive are the calls of the source.

`C=CCn1c(SCC(=O)Nc2cc3oc4ccccc4c3cc2OC)nnc1-c1cnccn1`: the IC50 (as a rule, the concentration at which inhibition is half-maximal) was > 66.2 µM (inactive) in assay [1]; > 49.7 µM (inactive) in [2]; 0.339 µM (active) in assay [3]; 3.14 µM (active) in assay [4]; 10.4 µM (inactive) in [5]; > 50 µM (inactive) in assay [6].

On to `CCCCC(=O)NC(c1ccc(OC)c(OC)c1)c1ccc2cccnc2c1O` (configuration not stated), for which the AC50 – broadly, the concentration at which the activity in the assay is half-maximal – in assay [7] was 7.93 µM (active); in assay [8], 1.36 µM (active); in assay [9], 60.1 µM (active); in assay [10] it was 1.4 µM (active).

`N=C(NOC(=O)c1cccc(Br)c1)c1ccccn1`: in [7], the AC50 is 21.8 µM (active).

On to `Cc1cccc(NC(=O)NNC(=O)c2cc(-c3ccccc3Cl)nc3ccccc23)c1`, for which the IC50 in assay [1] was > 66.3 µM (inactive); in assay [2] it was 48 µM (inactive); in assay [3], 0.815 µM (active); in assay [4], 13.5 µM (inactive); in assay [5], 16.4 µM (inactive); in assay [6], 27.1 µM (inactive). For the same molecule, in assay [11], the AC50 was 15.8 µM (inconclusive).

Regarding `CSc1cccc(NC(=O)C2CCCN(S(=O)(=O)c3ccc(F)cc3)C2)c1` (configuration not stated), the IC50 was > 66.2 µM (inactive) in assay [1]; > 49.8 µM (inactive) in [2]; 1.59 µM (active) in assay [3]; 10.4 µM (inactive) in assay [4]; 8.4 µM (active) in assay [5]; 14.2 µM (inactive) in assay [6].

In the case of `Cc1c(C(=O)O)cccc1-c1ccc(/C=C2/NC(=O)N(c3ccccc3)C2=O)o1`, the IC50 in assay [12] is > 100 µM (inactive); in assay [13] it was 21.2 µM (active); in [14], 28.6 µM (active); in assay [15] it was 45 µM (active).

For `O=C(O)c1ccc(-c2ccc(OS(=O)(=O)c3ccccc3F)cc2)cc1`, the IC50 was > 100 µM (inactive) in [12], 6.6 µM (active) in assay [13], 35 µM (active) in assay [14] and 56.4 µM (active) in assay [15].
